# Experimental data: US6753024B2, “Method for making a food preservative and for preserving food” (The United States of America as represented by the …, priority 2002, dated 2004)
# Tested on: Micrococcus luteus ATCC 10240
# Assay: Inhibition of test bacteria by nisin produced in fermented poi
# Type: cell-based
# Conditions: nisin produced by Lactococcus lactis subspecies lactis ATCC 11454 in taro; test bacteria known to cause food spoilage
# Source text: The nisin inhibits a test bacteria, Micrococcus luteus ATCC 10240, known to cause food spoilage. Thus, the Lactococcus lactis subspecies lactis ATCC 11454 grows in the taro and produces a bacteriocin therein.
substance,measurement,value
nisin,inhibition of test bacteria,inhibits
